Laboratory results taken from the supplement of paper PMC10307832.

Legend:
Experiment in all cases: relative viability (nuclei count vs DMSO), 5 days (fraction); higher = more cells survive
[1] = compound: CCN1C(=O)C2=CC(=C(N=C2N(C1=O)C3CC3)N)C(=O)N + C[C@@H](Oc1cc(-c2cnn(C3CCNCC3)c2)cnc1N)c1c(Cl)ccc(F)c1Cl [Crizotinib] (partner 1 µM)
Method in brief: (§1)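 Nuclei were stained with Hoechst during a one-step fixation (final 0.05% Triton X-100, 1% formaldehyde, 1 ug/ml Hoechst) carried out 5 days after dosing, then counted on 4× images. The cells, lung cancer lines in 1536-well plates, had been dosed by pin tool the day after seeding with one drug alone or a fixed anchor-drug dose plus five library-drug doses (not always all listed) in √10 steps. Relative viability is the nuclei count in treated wells divided by that in vehicle wells, and each value is the median of duplicate plates.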

[2] = compound: CCN1C(=O)C2=CC(=C(N=C2N(C1=O)C3CC3)N)C(=O)N + COc1cccc2cc(-c3nc([C@H]4CC[C@H](C(=O)O)CC4)n4ncnc(N)c34)[nH]c12 [OSI-027] (partner 0.5 µM)
Method in brief: as §1

[3] = compound: CCN1C(=O)C2=CC(=C(N=C2N(C1=O)C3CC3)N)C(=O)N + Nc1ncn([C@H]2C[C@H](O)[C@@H](CO)O2)c(=O)n1 [Decitabine] (partner 2 µM)
Method in brief: as §1

[4] = compound: CCN1C(=O)C2=CC(=C(N=C2N(C1=O)C3CC3)N)C(=O)N + Nc1nc2[nH]cc(CCc3ccc(C(=O)N[C@@H](CCC(=O)O)C(=O)O)cc3)c2c(=O)[nH]1 [Pemetrexed] (partner 0.2 µM)
Method in brief: as §1

[5] = compound: CCN1C(=O)C2=CC(=C(N=C2N(C1=O)C3CC3)N)C(=O)N + CC(C)C[C@H](NC(=O)[C@H](Cc1ccccc1)NC(=O)c1cnccn1)B(O)O [Bortezomib] (partner 0.002 µM)
Method in brief: as §1

Cell Line | relative viability ([1]; first compound 0.253 µM) | relative viability ([1]; first compound 0.8 µM) | relative viability ([1]; first compound 2.53 µM) | relative viability ([1]; first compound 8 µM) | relative viability ([2]; first compound 0.253 µM) | relative viability ([2]; first compound 0.8 µM) | relative viability ([2]; first compound 2.53 µM) | relative viability ([2]; first compound 8 µM) | relative viability ([3]; first compound 0.253 µM) | relative viability ([3]; first compound 0.8 µM) | relative viability ([3]; first compound 2.53 µM) | relative viability ([3]; first compound 8 µM) | relative viability ([4]; first compound 0.253 µM) | relative viability ([4]; first compound 0.8 µM) | relative viability ([4]; first compound 2.53 µM) | relative viability ([4]; first compound 8 µM) | relative viability ([5]; first compound 0.253 µM) | relative viability ([5]; first compound 0.8 µM) | relative viability ([5]; first compound 2.53 µM) | relative viability ([5]; first compound 8 µM)
201T | 1.08 | 0.97 | 0.98 | 1.03 | 0.431 | 0.729 | 0.761 | 0.667 | 0.866 | 0.81 | 0.814 | 0.844 | 0.328 | 0.309 | 0.34 | 0.313 | 1.1 | 1.07 | 1.09 | 1.05
A-427 | 0.986 | 1.08 | 0.774 | 1.06 | 0.46 | 0.487 | 0.49 | 0.466 | 0.552 | 0.537 | 0.521 | 0.563 | 0.952 | 0.927 | 1.08 | 0.927 | 0.938 | 0.963 | 0.965 | 0.956
ABC-1 | 1.21 | 1.04 | 1.18 | 1.32 | 0.438 | 0.474 | 0.538 | 0.469 | 0.996 |  | 1.17 | 1.05 |  |  |  |  | 0.298 | 0.325 | 0.312 | 0.266
BEN | 0.713 | 0.865 | 0.903 | 1.07 | 0.297 | 0.321 | 0.273 | 0.295 | 0.814 | 0.675 | 0.734 | 0.657 | 0.896 | 0.842 | 0.929 | 0.699 | 0.951 | 0.68 | 1.1 | 0.697
CAL-12T | 0.549 | 0.595 | 0.702 | 0.783 | 0.689 | 0.478 | 0.543 | 0.512 |  |  |  |  | 1.02 | 1.31 | 1.06 | 1.15 | 1.11 |  | 1.09 | 1.08
COR-L23 | 0.594 | 0.635 | 0.567 | 0.695 | 0.883 | 0.819 | 0.743 | 0.867 | 0.442 | 0.467 | 0.428 | 0.375 | 0.188 | 0.202 | 0.191 | 0.213 | 1 | 0.944 | 1.12 | 0.95
COR-L 105 | 0.915 | 0.726 | 0.732 | 0.995 | 0.873 | 0.729 | 0.634 | 0.651 | 0.712 | 0.657 | 0.597 | 0.785 | 0.941 | 1.01 | 0.991 | 1.16 | 0.866 | 0.709 | 0.856 | 0.738
ChaGo-K-1 | 1.14 | 1.13 | 1.14 | 1.41 | 0.516 | 0.518 | 0.683 | 0.502 | 0.529 | 0.555 | 0.489 | 0.449 | 0.272 | 0.264 | 0.263 | 0.246 | 1.12 | 0.87 | 1.1 | 1.1
EKVX | 1.07 | 1.14 | 0.837 | 1.05 | 0.803 | 0.751 | 0.675 | 0.498 | 0.352 | 0.33 | 0.352 | 0.296 | 0.397 | 0.414 | 0.282 | 0.351 | 1.18 | 1.14 | 1.07 | 0.901
EMC-BAC-2 | 0.841 | 0.734 | 0.713 | 0.855 | 0.474 | 0.336 | 0.33 | 0.379 | 1.05 |  | 0.89 | 0.94 | 0.461 |  | 0.403 | 0.431 | 1.12 | 1.04 | 0.9 | 1.06
EPLC-272H | 0.997 | 0.998 | 0.906 | 0.988 | 0.277 | 0.258 | 0.266 | 0.277 | 0.362 | 0.376 | 0.399 | 0.379 |  | 0.265 | 0.301 | 0.368 | 0.828 | 0.75 | 0.827 | 1
H3255 | 0.805 | 0.936 | 0.885 | 0.965 | 0.57 | 0.57 | 0.577 | 0.994 | 0.582 | 0.582 | 0.61 | 0.604 | 0.588 | 0.555 | 0.536 | 0.558 | 0.866 | 0.565 | 0.934 | 0.706
HARA | 1.1 | 1.04 | 0.946 | 1.16 | 0.415 | 0.576 | 0.473 | 0.54 | 0.473 | 0.587 | 0.402 | 0.721 | 0.223 | 0.232 | 0.246 | 0.216 | 1.18 | 1.12 | 1.11 | 1.15
HCC-15 | 0.789 | 0.829 | 0.909 | 0.872 | 0.648 | 0.72 | 0.685 | 0.663 | 0.596 | 0.663 | 0.624 | 0.603 | 0.231 | 0.221 | 0.2 | 0.235 | 0.992 | 1.11 | 0.979 | 1
HCC-44 | 0.844 | 0.826 | 0.772 | 0.851 | 0.568 | 0.446 | 0.527 | 0.421 | 0.999 | 0.999 | 0.885 | 0.872 | 0.588 | 0.641 | 0.613 | 0.668 | 0.896 | 0.895 | 0.879 | 0.877
HCC-78 | 0.349 | 0.327 | 0.292 | 0.379 | 0.434 |  | 0.354 | 0.387 | 0.681 | 0.636 | 0.726 | 0.639 | 0.866 | 0.949 | 0.813 | 0.842 | 0.293 | 0.479 | 0.463 | 0.516
HCC-366 | 0.615 | 0.6 | 0.537 | 0.968 |  | 0.938 | 0.877 | 0.743 | 0.294 | 0.346 | 0.341 | 0.284 | 0.167 | 0.17 | 0.155 | 0.163 | 1.03 | 1 | 1 | 0.997
